Experimental data: US6927208B1, “Cyclosporin with improved activity profile” (Debiopharm S.A., priority 1998, dated 2005)

Key:
[1] = system: Balb/c mouse spleen cells stimulated with treated CBA mouse spleen cells; test: mixed lymphocyte reaction (MLR), immunosuppressive activity; type: cell-based, mice; conditions: 5 days, greater than 1.0 = less active than CsA, >20 = not immunosuppressive
Description: Cs is regarded as being immunosuppressive if its activity in the mixed lymphocyte reaction (MLR) is greater than 5%. The reaction (MLR) is described by T. Meo in “Immunological Methods”, L. Lefkovits and […]: 227-239 (1979). Spleen cells (0.5.10^6) originating from Balb/c mice (female, 8 to 10 weeks) are co-incubated for 5 days in the presence of treated spleen cells originating from CBA mice (females, 8 to 10 weeks). These cells were treated with mitomycin C or were irradiated at 2000 rads. […] The IC50 calculated in the MLR test is compared with the IC50 corresponding to CsA in a parallel experiment.

HIV in CEM-SS cell line = test: protection during infection with HIV of a CEM-SS cell line (measured by the NCI); type: cell-based; conditions: mean value at a derivative concentration of 2×10^−6 molar, compared with infection in the absence of Cs
Description: The protection of this line in the presence of a Cs derivative is compared with the infection of a line cultivated in the absence of Cs (reference control). A mean value is established at a concentration of the derivative of 2×10^−6 molar. This anti-HIV activity was measured by the NCI (National Cancer Institute) in Washington in the USA.

cyclophilin A = cyclophilin A (Homo sapiens, UniProt P62937); test: competitive ELISA test, affinity of Cs derivatives for cyclophilin A; type: binding; conditions: 1.0 = binds as well as CsA, lower than 1.0 = binds better
Sequence of cyclophilin A (P62937 whole entry, species assumed): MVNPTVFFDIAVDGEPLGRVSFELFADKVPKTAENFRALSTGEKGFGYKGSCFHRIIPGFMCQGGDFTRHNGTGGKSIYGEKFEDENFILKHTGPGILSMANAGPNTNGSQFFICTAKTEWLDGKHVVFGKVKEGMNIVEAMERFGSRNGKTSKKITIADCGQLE
Description: The results of Table 1 show the affinity of the derivatives of Cs for cyclophilin A in a competitive ELISA test described by Quesniaux in Eur. J. Immunology 1987, 17, 1359-1365. In this test, during incubation with cyclophilin, Cs bound to BSA (serum albumin) is added to the Cs to be tested. The concentration required to obtain 50% inhibition (IC50) of the reference reaction in the absence of competitor is then calculated. The results are expressed by the binding index BI which is the ratio of the IC50 of the derivative and the IC50 of CsA.

Compound	IR (ratio of the IC50 of the MLR test of the derivative over the IC50 of cyclosporin A) [1]	Percentage HIV Protection (HIV in CEM-SS cell line)	BI (binding index: ratio of the IC50 of the derivative and the IC50 of CsA) (cyclophilin A)
C/C=C/C[C@@H](C)[C@@H](O)[C@H]1C(=O)N[C@@H](CC)C(=O)N(C)CC(=O)N(C)[C@@H]([C@@H](C)CC)C(=O)N[C@@H](C(C)C)C(=O)N(C)[C@@H](CC(C)C)C(=O)N[C@@H](C)C(=O)N[C@H](C)C(=O)N(C)[C@@H](CC(C)C)C(=O)N(C)[C@@H](CC(C)C)C(=O)N(C)[C@@H](C(C)C)C(=O)N1C [UNIL 007, MeIle^4-Cs]	>200	68.5	0.5
EtIle4-Cs [UNIL 013]	>200	–	1.3
EtPhe(4-CH2PO(OMe)2)-Cs [UNIL 014]	>200	–	0.5
EtVal^4-Cs [UNIL 004]	>200	74.9	1.0
MeVal^4-Cs [UNIL 002]	>200	66.4	0.6
cyclosporin A [UNIL 001]	1.0	–	1.0
